Assay results reported in US8802866B2, “Pyridinylimidazolone derivatives for the inhibition of PI3 kinases” (Merck Patent GmbH, priority 2009, dated 2014).

Key:
mTOR = biological target: T1, mTOR (Homo sapiens, UniProt P42345); experiment: Biochemical mTOR assay (Millipore mTOR assay kit)
T1 construct: purchased Millipore 14-770
Experimental: The biochemical mTOR assay was carried out by the method described in the Millipore mTOR assay kit (catalogue number 14-770).

DNA-PK protein complex = DNA-PK protein complex (Homo sapiens, UniProt P78527); experiment: Biochemical DNA-PK assay (FlashPlate)
Experimental: The kinase assay is carried out in […] microtitre FlashPlates®, coated with streptavidin. […] The reaction is stopped by addition of 50 μl/well of 200 mM EDTA. After incubation for 30 minutes, the liquids are removed at room temperature. Each well is washed three times with 100 μl of 0.9% NaCl solution. Non-specific reaction (blank) is determined using a proprietary kinase inhibitor (10 μM). The radioactivity is measured by means of a Topcount. […] Todd Eary, J. G. Schiro, H. Huang, L. E. Burgess, E. A. Kesicki, and J. Halbrook.

[1] = system: PI3K-dependent phosphorylation of PKB at Serin 473 in PC3 cells; experiment: Cellular PI3K assay (P-S473-PKB Luminex assay in PC3 cells); format: cell-based; details: Homo sapiens, PC-3, 0.5 h; PC3 cells, 30 min, serum-free, P-S473-PKB; read-out: IC50 (cell)
Experimental: The cellular assay for determination of the P-S473-PKB level is carried out as a Luminex assay in 96-well format in PC3 cells.
PC3 cells are sown out with 20,000 cells per well in 100 μl medium (45% […]/45% Ham's F12/10% FCS) and incubated on the following day for 30 min with a serial dilution of the test substance (7 concentrations) under serum-free conditions. The cells are subsequently lysed using 90 μl of lysis buffer (20 mM Tris/HCl pH 8.0, 150 mM NaCl, 1% NP40, 10% glycerol, 1% phosphatase inhibitor I, 1% phosphatase inhibitor II, 0.1% protease inhibitor cocktail III, 0.01% benzonase) per well, and the lysates are separated off from insoluble cell constituents by means of centrifugation through a 96-well filter plate (0.65 μm). The lysates are incubated overnight at 4° C. with shaking with Luminex beads to which an anti-total PKB antibody is coupled. The detection is carried out on the following day by addition of a P-S473-PKB antibody and a species-specific PE-labelled secondary antibody. The detection of P-S473-PKB is carried out by measurement in a Luminex100 instrument by determination of 100 events per cavity in a measurement time of 60 sec.

PI3Kbeta = PI3Kbeta (Homo sapiens, UniProt P42338); experiment: Biochemical PI3Kbeta assay (neomycin SPA, lipid phosphorylation); details: human recombinant GST-PI3K
PI3Kbeta, sequence (P42338 whole entry): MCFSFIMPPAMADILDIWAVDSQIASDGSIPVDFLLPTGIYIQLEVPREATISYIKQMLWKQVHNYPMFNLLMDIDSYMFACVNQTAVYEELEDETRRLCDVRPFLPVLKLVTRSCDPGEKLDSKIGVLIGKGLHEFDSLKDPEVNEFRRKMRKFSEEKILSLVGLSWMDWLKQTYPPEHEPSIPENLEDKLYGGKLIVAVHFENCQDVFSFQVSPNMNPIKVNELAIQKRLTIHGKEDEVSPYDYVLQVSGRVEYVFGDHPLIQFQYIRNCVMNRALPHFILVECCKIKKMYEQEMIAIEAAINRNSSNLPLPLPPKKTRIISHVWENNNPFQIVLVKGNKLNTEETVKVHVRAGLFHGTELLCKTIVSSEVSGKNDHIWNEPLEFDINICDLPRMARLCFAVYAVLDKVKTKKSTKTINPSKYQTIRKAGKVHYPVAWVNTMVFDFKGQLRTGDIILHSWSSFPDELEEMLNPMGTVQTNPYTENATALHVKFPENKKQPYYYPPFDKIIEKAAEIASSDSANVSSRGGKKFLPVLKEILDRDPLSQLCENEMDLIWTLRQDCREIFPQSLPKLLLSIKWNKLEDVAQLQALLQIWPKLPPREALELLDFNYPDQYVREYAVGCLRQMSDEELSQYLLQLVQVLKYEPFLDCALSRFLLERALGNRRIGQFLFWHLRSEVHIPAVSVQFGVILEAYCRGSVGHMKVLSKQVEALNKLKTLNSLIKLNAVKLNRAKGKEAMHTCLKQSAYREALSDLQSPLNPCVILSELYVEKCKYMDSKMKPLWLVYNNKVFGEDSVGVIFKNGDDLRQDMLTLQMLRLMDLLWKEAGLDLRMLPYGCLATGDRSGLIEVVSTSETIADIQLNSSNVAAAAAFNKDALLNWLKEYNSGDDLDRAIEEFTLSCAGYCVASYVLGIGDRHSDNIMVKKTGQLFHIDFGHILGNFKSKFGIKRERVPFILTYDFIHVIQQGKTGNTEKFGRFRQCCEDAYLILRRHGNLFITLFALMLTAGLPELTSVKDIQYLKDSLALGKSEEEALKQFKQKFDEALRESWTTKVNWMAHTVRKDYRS
PI3Kbeta, sequence (P27986 whole entry partner): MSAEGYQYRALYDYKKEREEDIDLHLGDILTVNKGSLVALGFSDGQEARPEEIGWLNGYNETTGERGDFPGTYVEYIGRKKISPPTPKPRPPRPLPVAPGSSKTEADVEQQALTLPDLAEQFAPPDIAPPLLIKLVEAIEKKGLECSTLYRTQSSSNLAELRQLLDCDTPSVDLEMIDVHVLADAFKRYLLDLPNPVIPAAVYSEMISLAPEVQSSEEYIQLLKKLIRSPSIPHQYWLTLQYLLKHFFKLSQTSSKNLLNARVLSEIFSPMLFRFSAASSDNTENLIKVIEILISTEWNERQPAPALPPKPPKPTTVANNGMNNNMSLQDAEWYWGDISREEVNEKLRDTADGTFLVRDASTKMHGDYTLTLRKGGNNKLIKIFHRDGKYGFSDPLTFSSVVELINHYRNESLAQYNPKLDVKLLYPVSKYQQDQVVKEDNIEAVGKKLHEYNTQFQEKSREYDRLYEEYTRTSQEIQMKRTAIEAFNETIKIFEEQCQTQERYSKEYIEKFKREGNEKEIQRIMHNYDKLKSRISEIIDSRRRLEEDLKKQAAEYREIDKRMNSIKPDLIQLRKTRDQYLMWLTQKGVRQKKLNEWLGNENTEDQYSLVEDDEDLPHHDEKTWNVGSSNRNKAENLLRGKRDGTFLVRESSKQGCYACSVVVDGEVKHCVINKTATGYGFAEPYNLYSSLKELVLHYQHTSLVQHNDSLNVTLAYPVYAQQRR
Experimental: (§1) The efficacy of the compounds according to the invention in the inhibition of PI3K-induced lipid phosphorylation can be investigated in the following binding assay. The assay combines scintillation proximity assay (SPA) technology (Amersham) with the ability of neomycin (a polycationic antibiotic) to bind phospholipids with high affinity and specificity. […] The coating of SPA beads with neomycin allows the detection of phosphorylated lipid substrates after incubation with recombinant PI3K and radioactive ATP in the same well by trapping the radioactive phospholipids by the SPA beads owing to their specific binding to neomycin. […] After incubation at room temperature for 120 minutes with gentle stirring, the reaction was stopped by addition of 200 μl of a solution comprising 250 μg of neomycin-coated PVT-SPA beads, ATP 60 mM and EDTA 6.2 mM in PBS. The assay is incubated at room temperature for a further 60 minutes with gentle stirring in order to enable binding of the phospholipids to the neomycin-SPA beads. After precipitation of the neomycin-coated PVT-SPA beads over 5 minutes at 1500×g, radioactive Ptdlns(3)P is quantified by scintillation counting in a Wallac Micro-Beta™ plate counter.

[2] = biological target: recombinant PI3Kalpha (shortened form of the catalytic subunit) (Homo sapiens, UniProt P42336); experiment: BIACORE PI3K binding assay (SPR); details: 25° C.
recombinant PI3Kalpha (shortened form of the catalytic subunit), sequence (P42336 151-1068 limits assumed): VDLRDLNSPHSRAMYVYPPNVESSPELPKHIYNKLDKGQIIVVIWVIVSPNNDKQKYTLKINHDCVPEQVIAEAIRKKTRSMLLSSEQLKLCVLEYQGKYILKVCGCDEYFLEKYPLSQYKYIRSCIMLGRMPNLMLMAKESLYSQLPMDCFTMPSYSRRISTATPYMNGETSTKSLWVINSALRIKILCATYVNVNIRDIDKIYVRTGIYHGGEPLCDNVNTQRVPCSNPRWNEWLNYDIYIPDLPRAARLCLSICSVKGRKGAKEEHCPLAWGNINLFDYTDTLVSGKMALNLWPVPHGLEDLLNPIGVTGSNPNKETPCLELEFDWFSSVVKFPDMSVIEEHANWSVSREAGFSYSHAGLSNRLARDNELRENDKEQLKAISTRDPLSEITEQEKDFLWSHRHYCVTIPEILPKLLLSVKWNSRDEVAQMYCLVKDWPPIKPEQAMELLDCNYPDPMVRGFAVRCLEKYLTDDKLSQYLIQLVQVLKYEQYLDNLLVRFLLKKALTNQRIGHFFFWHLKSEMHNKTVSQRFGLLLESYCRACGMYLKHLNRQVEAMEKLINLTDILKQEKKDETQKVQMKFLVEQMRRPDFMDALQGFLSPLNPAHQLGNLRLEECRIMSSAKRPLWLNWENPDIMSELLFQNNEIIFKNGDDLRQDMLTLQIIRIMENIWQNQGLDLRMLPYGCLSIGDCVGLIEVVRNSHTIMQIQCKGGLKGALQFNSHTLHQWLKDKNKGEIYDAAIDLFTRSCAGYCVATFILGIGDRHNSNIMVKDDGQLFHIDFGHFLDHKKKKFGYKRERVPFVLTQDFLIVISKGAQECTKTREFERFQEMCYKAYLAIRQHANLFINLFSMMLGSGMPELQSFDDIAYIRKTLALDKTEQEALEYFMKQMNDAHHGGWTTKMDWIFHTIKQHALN
Experimental: SPR measurements of the binding affinities and binding kinetics on PI3Kalpha surfaces with the aid of Biacore systems. The experiments are carried out on a Biacore S51 “Compound Characterization” or a Biacore T100 instrument utilising the default application “Kinetics/Affinity” Experimental conditions: recombinant PI3Kalpha (shortened form of the catalytic subunit, missing N terminal from about 100 to 150 aa, Mw about 110 kDa, prepared by Proteros Biostructures GmbH) is immobilised on Biacore CM5 chips (25° C., flow rate: 10 μl/min, utilising amine coupling at pH 7.40—Biacore Standard protocol). PI3Kalpha is employed in concentrations between 10 and 25 μg/ml. Depending on the duration of the injection time, immobilisation levels from 1700 to 11000 RU are achieved. The substances to be measured are added in the form of a titration series. The substance concentration is doubled for each subsequent injection. 10 different substance concentrations which cover a 500-fold dilution range are usually injected. […] Kinetic titration experiments are carried out at 25° C. with a flow rate of 30 μl/min, the sample contact time is 180 s, and the dissociation time is 240 s in a running buffer (20 mM HEPES pH7.40, 150 mM NaCl, 5 mM MgCl2, 1 mM DTT, 0.1 mM EDTA, 0.05% Tween 20) comprising 2% of DMSO. Buffer injections (as double references) identical to the sample injections are carried out in each case at the beginning of a continuous series. Solvent correction cycles (eight correction points, 1.4%-2.8% DMSO) are carried out at equal intervals. In order to condition the surface, at least five start-up cycles (buffer injections) are carried out. Data points are collected with a sample rate of 10 Hz. Surface regeneration is carried out after each measurement cycle, apart from after the solvent correction runs. For this purpose, two times 100 mM NaHCO3 pH 8.60 are injected for 30 sec. Data sets are processed and analysed using the Biacore S51 Evaluation software, version 1.2.1, or Biacore T100 Evaluation, version 2.0. Solvent-corrected and double-referenced association and dissociation phase data are adapted to a simple 1:1 interaction model with mass transport limitations.

PI3Kalpha = PI3Kalpha (Homo sapiens, UniProt P42336); experiment: Biochemical PI3Kalpha assay (neomycin SPA, lipid phosphorylation); details: human recombinant GST-PI3K
PI3Kalpha, sequence (P42336 whole entry): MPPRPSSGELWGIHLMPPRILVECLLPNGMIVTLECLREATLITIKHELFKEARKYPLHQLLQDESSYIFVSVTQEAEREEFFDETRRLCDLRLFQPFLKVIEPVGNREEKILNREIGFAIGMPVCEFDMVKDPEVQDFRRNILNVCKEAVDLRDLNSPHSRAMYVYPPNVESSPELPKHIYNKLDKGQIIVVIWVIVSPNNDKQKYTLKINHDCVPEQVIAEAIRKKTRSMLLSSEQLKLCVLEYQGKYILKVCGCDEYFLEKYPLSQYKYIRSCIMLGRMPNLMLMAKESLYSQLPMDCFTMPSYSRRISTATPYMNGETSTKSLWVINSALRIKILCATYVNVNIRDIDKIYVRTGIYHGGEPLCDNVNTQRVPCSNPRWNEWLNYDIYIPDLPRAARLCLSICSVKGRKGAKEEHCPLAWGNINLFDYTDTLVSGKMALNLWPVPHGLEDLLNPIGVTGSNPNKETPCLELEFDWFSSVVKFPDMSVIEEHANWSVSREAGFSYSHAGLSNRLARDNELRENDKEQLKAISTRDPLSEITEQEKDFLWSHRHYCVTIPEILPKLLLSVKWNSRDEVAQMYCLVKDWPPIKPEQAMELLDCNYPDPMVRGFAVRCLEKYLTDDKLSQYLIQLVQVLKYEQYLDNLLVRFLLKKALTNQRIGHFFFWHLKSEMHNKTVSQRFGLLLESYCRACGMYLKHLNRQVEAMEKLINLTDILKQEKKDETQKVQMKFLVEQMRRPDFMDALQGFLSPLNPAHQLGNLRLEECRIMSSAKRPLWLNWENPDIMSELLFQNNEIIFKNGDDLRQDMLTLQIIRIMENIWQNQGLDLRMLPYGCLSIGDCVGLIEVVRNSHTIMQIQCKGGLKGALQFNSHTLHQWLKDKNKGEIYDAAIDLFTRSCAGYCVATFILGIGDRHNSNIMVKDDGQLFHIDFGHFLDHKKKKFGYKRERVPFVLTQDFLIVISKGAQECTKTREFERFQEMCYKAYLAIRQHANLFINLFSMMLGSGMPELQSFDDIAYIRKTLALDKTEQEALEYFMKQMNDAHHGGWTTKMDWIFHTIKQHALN
PI3Kalpha, sequence (P27986 whole entry partner): as the sequence (P27986 whole entry partner) above
Experimental: as §1

T1 sequence (P42345 1362-2549 limits assumed): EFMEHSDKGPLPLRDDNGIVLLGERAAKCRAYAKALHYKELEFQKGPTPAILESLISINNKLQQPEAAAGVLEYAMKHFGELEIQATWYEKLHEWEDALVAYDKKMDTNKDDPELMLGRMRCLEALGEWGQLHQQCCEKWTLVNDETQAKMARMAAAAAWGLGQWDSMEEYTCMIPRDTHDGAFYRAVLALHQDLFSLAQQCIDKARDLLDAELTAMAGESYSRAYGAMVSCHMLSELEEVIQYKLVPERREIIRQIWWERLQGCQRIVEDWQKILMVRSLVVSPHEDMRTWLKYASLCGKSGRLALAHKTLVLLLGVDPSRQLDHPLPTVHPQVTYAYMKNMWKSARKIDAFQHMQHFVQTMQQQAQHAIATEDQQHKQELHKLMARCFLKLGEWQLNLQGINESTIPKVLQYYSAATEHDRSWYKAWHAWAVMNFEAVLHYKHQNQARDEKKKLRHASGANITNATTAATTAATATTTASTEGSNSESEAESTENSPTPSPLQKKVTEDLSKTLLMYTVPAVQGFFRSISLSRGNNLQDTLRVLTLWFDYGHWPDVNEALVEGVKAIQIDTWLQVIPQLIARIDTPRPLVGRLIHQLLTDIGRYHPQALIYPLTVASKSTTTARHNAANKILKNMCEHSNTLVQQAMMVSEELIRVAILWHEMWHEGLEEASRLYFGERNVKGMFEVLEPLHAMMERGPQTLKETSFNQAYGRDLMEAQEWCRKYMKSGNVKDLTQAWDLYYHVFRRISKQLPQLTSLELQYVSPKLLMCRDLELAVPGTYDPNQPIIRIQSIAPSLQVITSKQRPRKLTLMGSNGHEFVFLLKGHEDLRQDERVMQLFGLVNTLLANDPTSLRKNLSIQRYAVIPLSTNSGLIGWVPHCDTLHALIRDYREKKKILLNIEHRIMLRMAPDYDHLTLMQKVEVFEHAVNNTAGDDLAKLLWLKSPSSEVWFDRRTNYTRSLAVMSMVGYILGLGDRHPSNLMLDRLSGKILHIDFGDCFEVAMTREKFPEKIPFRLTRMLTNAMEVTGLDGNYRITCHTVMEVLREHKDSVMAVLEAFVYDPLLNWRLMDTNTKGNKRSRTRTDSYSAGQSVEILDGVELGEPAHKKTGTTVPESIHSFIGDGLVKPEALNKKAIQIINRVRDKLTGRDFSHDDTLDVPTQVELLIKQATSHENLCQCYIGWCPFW

IC50 (mTOR) | IC50 (DNA-PK protein complex) | IC50 [1] | IC50 (PI3Kbeta) | Kd [2] | IC50 (PI3Kalpha) | Structure (SMILES)
100 to 10000 nM | 0.1 to 100 nM | > 10000 nM |  |  |  | Cn1cc(-c2cc(-c3ccc(=O)[nH]c3)ccn2)n(-c2ccc(C(C)(C)C#N)cc2)c1=O [Example A39, 2-{4-[5-(6-Hydroxy-[3,4′]bipyridinyl-2′-yl)-3-methyl-2-oxo-2,3-dihydroimidazol-1-yl]phenyl}-2-methylpropionitrile]
 | > 10000 nM | > 10000 nM | > 10000 nM | 100 to 10000 nM | > 10000 nM | Cn1cc(-c2cc(-c3cnc4[nH]ccc4c3)ccn2)n(-c2ccccc2C#N)c1=O [Example A69, 2-{3-Methyl-2-oxo-5-[4-(1H-pyrrolo[2,3-b]pyridin-5-yl)pyridin-2-yl]-2,3-dihydroimidazol-1-yl}benzonitrile]
 | 0.1 to 100 nM | 0.1 to 100 nM | 100 to 10000 nM | 0.1 to 100 nM | 100 to 10000 nM | Cn1cc(-c2cc(-c3cnc4[nH]ccc4c3)ccn2)n(-c2ccc(N3CCOCC3)c(C(F)(F)F)c2)c1=O [Example A71, 1-Methyl-3-(4-morpholin-4-yl-3-trifluoromethylphenyl)-4-[4-(1H-pyrrolo[2,3-b]-pyridin-5-yl)pyridin-2-yl]-1,3-dihydroimidazol-2-one]
 | 100 to 10000 nM | 100 to 10000 nM | 100 to 10000 nM | 0.1 to 100 nM | 100 to 10000 nM | CN1CCN(c2ccc(-n3c(-c4cc(-c5cnc6[nH]ccc6c5)ccn4)cn(C)c3=O)cc2C#N)CC1 [Example A83, 5-{3-Methyl-2-oxo-5-[4-(1H-pyrrolo[2,3-b]pyridin-5-yl)pyridin-2-yl]-2,3-dihydroimidazol-1-yl}-2-(4-methylpiperazin-1-yl)benzonitrile]
 | 0.1 to 100 nM | 100 to 10000 nM | 100 to 10000 nM | 0.1 to 100 nM | 0.1 to 100 nM | Cn1cc(-c2cc(-c3cnc(N)c(-c4ccccc4)c3)ccn2)n(-c2ccc(C(C)(C)C#N)cc2)c1=O [Example A84, 2-{4-[5-(6-Amino-5-phenyl-[3,4′]bipyridinyl-2′-yl)-3-methyl-2-oxo-2,3-dihydroimidazol-1-yl]phenyl}-2-methylpropionitrile]
 | 100 to 10000 nM | 100 to 10000 nM | 100 to 10000 nM | 100 to 10000 nM | 100 to 10000 nM | Cc1cc2cc(-c3ccnc(-c4cn(C)c(=O)n4-c4ccc(N5CCN(C)CC5)c(C(F)(F)F)c4)c3)cnc2[nH]1 [Example A88, 1-Methyl-3-[4-(4-methylpiperazin-1-yl)-3-trifluoromethylphenyl]-4-[4-(2-methyl-1H-pyrrolo[2,3-b]pyridin-5-yl)pyridin-2-yl]-1,3-dihydroimidazol-2-one]
 | 100 to 10000 nM | 100 to 10000 nM | > 10000 nM | 100 to 10000 nM | 100 to 10000 nM | CC(=O)N1CCN(c2ccc(-n3c(-c4cc(-c5ccc6[nH]ccc6c5)ccn4)cn(C)c3=O)cc2C(F)(F)F)CC1 [Example A89, 3-[4-(4-Acetylpiperazin-1-yl)-3-trifluoromethylphenyl]-4-[4-(1H-indol-5-yl)pyridin-2-yl]-1-methyl-1,3-dihydroimidazol-2-one]
 | 0.1 to 100 nM | 0.1 to 100 nM | 100 to 10000 nM | 0.1 to 100 nM | 100 to 10000 nM | Cn1cc(-c2cc(-c3cnc4[nH]ccc4c3)ccn2)n(-c2cccc(Oc3ccccc3)c2)c1=O [Example A90, 1-Methyl-3-(3-phenoxyphenyl)-4-[4-(1H-pyrrolo[2,3-b]pyridin-5-yl)pyridin-2-yl]-1,3-dihydroimidazol-2-one]
 | 100 to 10000 nM | 100 to 10000 nM | 100 to 10000 nM | 100 to 10000 nM | 100 to 10000 nM | Cn1cc(-c2cc(-c3cnc(N)c(C(F)(F)F)c3)ccn2)n(-c2ccc(F)c(C(F)(F)F)c2)c1=O [Example A97, 4-(6-Amino-5-trifluoromethyl-[3,4′]bipyridinyl-2′-yl)-3-(4-fluoro-3-trifluoromethyl-phenyl)-1-methyl-1,3-dihydroimidazol-2-one]
 | 100 to 10000 nM | > 10000 nM | 100 to 10000 nM | 100 to 10000 nM | 100 to 10000 nM | CN1CCN(c2cc(C#N)cc(-n3c(-c4cc(-c5cnc6[nH]ccc6c5)ccn4)cn(C)c3=O)c2)CC1 [Example A98, 3-{3-Methyl-2-oxo-5-[4-(1H-pyrrolo[2,3-b]pyridin-5-yl)pyridin-2-yl]-2,3-dihydro-imidazol-1-yl}-5-(4-methylpiperazin-1-yl)benzonitrile]
 | 0.1 to 100 nM | 100 to 10000 nM | 100 to 10000 nM | 100 to 10000 nM | 100 to 10000 nM | CCc1cc(-c2c[nH]c3ncc(-c4ccnc(-c5cn(C)c(=O)n5-c5ccc(C(C)(C)C#N)cc5)c4)cc23)nc(N)n1 [Example A99, 2-[4-(5-{4-[3-(2-Amino-6-ethylpyrimidin-4-yl)-1H-pyrrolo[2,3-b]pyridin-5-yl]-pyridin-2-yl}-3-methyl-2-oxo-2,3-dihydroimidazol-1-yl)phenyl]-2-methylpropionitrile]
 | 0.1 to 100 nM | 100 to 10000 nM | > 10000 nM | 100 to 10000 nM | > 10000 nM | COc1ccc(Cn2c(-c3cc(-c4cnc5[nH]ccc5c4)ccn3)cn(C)c2=O)cc1 [Example A108, 3-(4-Methoxybenzyl)-1-methyl-4-[4-(1H-pyrrolo[2,3-b]pyridin-5-yl)pyridin-2-yl]-1,3-dihydroimidazol-2-one]
 | 0.1 to 100 nM | 100 to 10000 nM | 100 to 10000 nM | 100 to 10000 nM | 100 to 10000 nM | COc1ccc(Cn2c(-c3cc(-c4cnc5[nH]ncc5c4)ccn3)cn(C)c2=O)cc1 [Example A109, 3-(4-Methoxybenzyl)-1-methyl-4-[4-(1H-pyrazolo[3,4-b]pyridin-5-yl)pyridin-2-yl]-1,3-dihydroimidazol-2-one]
 | 100 to 10000 nM | 100 to 10000 nM | 100 to 10000 nM | 100 to 10000 nM | 100 to 10000 nM | COc1ccc(Cn2c(-c3cc(-c4cnc(N)c(C(F)(F)F)c4)ccn3)cn(C)c2=O)cc1 [Example A110, 4-(6-Amino-5-trifluoromethyl-[3,4′]bipyridinyl-2′-yl)-3-(4-methoxybenzyl)-1-methyl-1,3-dihydroimidazol-2-one]
